This passage reports MIC results from patent publication US4587342A, “2,4-diamino-(substituted-benzopyran(quinolyl,isoquinoly)methyl)pyrimidine s useful as antibacterials” (priority 1980, dated 1986).

In brackets after ≈: the same amount, converted by molar mass.

The experiment deals with Staph. aureus. Briefly: MIC vs Staph. aureus (Table 2). It counts as cell-based. To be noted: Staphylococcus aureus, strain not given. The text has this: The compounds of the present invention were subjected to standard tests in order to determine the minimum inhibitory concentration in μg/ml needed to inhibit a range of bacterial microorganisms in-vitro.
In the case of `COc1cc(Cc2cnc(N)nc2N)c2c(c1OC)OCCC2` [Compound 2, 2,4-Diamino-5-(3,4-dihydro-7,8-dimethoxy-2 --H--1-benzopyran-5-yl) pyrimidine], the minimum inhibitory concentration (MIC) (as a rule, the lowest concentration that inhibits growth of the organism) is 0.5 µg/mL (≈ 1.58 µM). Next, `COc1ccc(Cc2cnc(N)nc2N)c2cccnc12` [Compound 3, 2,4-Diamino-5-(8-methoxy-5-quinolylmethyl)-pyrimidine]: 0.5 µg/mL (≈ 1.78 µM); `Cc1cc(Cc2cnc(N)nc2N)c2cccnc2c1N.Cl` [Compound 5, 2,4-Diamino-5-(8-amino-7-methyl-5-quinolylmethyl)-pyrimidine hydrochloride]: 0.5 µg/mL. As for `COc1cc(Cc2cnc(N)nc2N)c2c(c1OC)OC(C)(C)C=C2` [Compound 6, 2,4-Diamino-5-(7,8-dimethoxy-2,2-dimethyl-2 --H--1-benzopyran-5-ylmethyl) pyrimidine lactate], the figure is 0.05 µg/mL; as for `COc1cc(Cc2cnc(N)nc2N)c2ccc(=O)oc2c1OC` [Compound 7, 2,4-Diamino-5-(7,8-dimethoxy-2-oxo-2 --H--1-benzopyran-5-ylmethyl)pyrim], 0.5 µg/mL (≈ 1.52 µM). As for `COc1cc(Cc2cnc(N)nc2N)c2c(c1OC)OC=CC2` [Compound 10, 2,4-Diamino-5-(7,8-dimethoxy-4 --H--1-benzopyran-5-ylmethyl)pyrimidine acetate], the figure is 0.05 µg/mL.

As for `C=CCc1cc(Cc2cnc(N)nc2N)c2cccnc2c1O` [Compound 11, 5-(7-Allyl-8-hydroxy-5-quinolylmethyl)-2,4-diaminopyrimidine], the MIC is 1 µg/mL (≈ 3.25 µM). The molecule `C=CCc1cc(Cc2cnc(N)nc2N)c2cccnc2c1OC` [Compound 12, 5-(7-Allyl-8-methoxy-5-quinolylmethyl)-2,4-diaminopyrimidine] displayed an MIC of 0.05 µg/mL (≈ 0.156 µM). Next, `C=CCc1cc(Cc2cnc(N)nc2N)c2ccc(C)nc2c1O` [Compound 13, 5-(7-Allyl-8-hydroxy-2-methyl-5-quinolylmethyl)-2,4-diaminopyrimidine]: 0.1 µg/mL (≈ 0.311 µM); `CC=Cc1cc(Cc2cnc(N)nc2N)c2cccnc2c1OC` [Compound 14, 2,4-Diamino-5-(8-methoxy-7-(1-propenyl)-5-quinolylmethyl)pyrimidine]: 0.05 µg/mL (≈ 0.156 µM); `COc1cc(Cc2cnc(N)nc2N)c2cccnc2c1N(C)C.Cl.Cl` [Compound 15, 2,4-Diamino-5-(8-dimethylamino-7-methoxy-5-quinolylmethyl)pyrimidine dihydrochloride]: 0.5 µg/mL.

In turn, `C=CCc1cc(Cc2cnc(N)nc2N)c2ccc(C)nc2c1OC` [Compound 16, 5-(7-Allyl-8-methoxy-2-methyl-5-quinolylmethyl)-2,4-diaminopyrimidine] had an MIC of 0.05 µg/mL (≈ 0.149 µM).

In the case of `Cc1cc(Cc2cnc(N)nc2N)c2cccnc2c1.Cl.Cl` [Compound 17, 2,4-Diamino-5-(7-methyl-5-quinolylmethyl)-pyrimidine dihydrochloride], the minimum inhibitory concentration (MIC) turned out to be 0.5 µg/mL. Next, `CC(=O)O.Cc1cc(Cc2cnc(N)nc2N)c2cccnc2c1-n1cccc1` [Compound 18, 2,4-Diamino-5-(8-(1-pyrrolyl)-7-methyl-5-quinolylmethyl)pyrimidine acetate]: 0.5 µg/mL. As for `COc1cc(Cc2cnc(N)nc2N)c2c(c1OC)OC(C)=CC2` [Compound 19, 2,4-Diamino-5-(7,8-dimethoxy-2-methyl-4H--1-benzopyran-5-ylmethyl)pyrimidine], the figure is 0.05 µg/mL (≈ 0.152 µM); as for `CCCc1cc(Cc2cnc(N)nc2N)c2cccnc2c1OC` [Compound 20, 2,4-Diamino-5-(8-methoxy-7-propyl-5-quinolylmethyl)-pyrimidine], 0.05 µg/mL (≈ 0.155 µM). Next, `COc1cc(Cc2cnc(N)nc2N)c2c(c1OC)OC(C)CC2` (stereo not drawn) [Compound 22, 2,4-Diamino-5-(7,8-dimethoxy-3,4-dihydro-2-methyl-2 --H---1-benzopyran-5-ylmethyl)pyrimidine]: 0.1 µg/mL (≈ 0.303 µM). `COc1cc(Cc2cnc(N)nc2N)c2cccnc2c1O` [Compound 23, 2,4-Diamino-5-(8-hydroxy-7-methoxy-5-quinolylmethyl)pyrimidine] yielded an MIC of 5 µg/mL (≈ 16.8 µM).
